Broadly, the IC50 is the concentration that gives 50% inhibition. Usually logP stands for the decadic logarithm of the partition coefficient of the neutral form, usually between octanol and water. The low end stands for a more hydrophilic compound, the high end for a more lipophilic compound.

For data set [1], the target named is T1, Glutaminase kidney isoform, mitochondrial (Homo sapiens, UniProt O94925).
T1 sequence (O94925 whole entry): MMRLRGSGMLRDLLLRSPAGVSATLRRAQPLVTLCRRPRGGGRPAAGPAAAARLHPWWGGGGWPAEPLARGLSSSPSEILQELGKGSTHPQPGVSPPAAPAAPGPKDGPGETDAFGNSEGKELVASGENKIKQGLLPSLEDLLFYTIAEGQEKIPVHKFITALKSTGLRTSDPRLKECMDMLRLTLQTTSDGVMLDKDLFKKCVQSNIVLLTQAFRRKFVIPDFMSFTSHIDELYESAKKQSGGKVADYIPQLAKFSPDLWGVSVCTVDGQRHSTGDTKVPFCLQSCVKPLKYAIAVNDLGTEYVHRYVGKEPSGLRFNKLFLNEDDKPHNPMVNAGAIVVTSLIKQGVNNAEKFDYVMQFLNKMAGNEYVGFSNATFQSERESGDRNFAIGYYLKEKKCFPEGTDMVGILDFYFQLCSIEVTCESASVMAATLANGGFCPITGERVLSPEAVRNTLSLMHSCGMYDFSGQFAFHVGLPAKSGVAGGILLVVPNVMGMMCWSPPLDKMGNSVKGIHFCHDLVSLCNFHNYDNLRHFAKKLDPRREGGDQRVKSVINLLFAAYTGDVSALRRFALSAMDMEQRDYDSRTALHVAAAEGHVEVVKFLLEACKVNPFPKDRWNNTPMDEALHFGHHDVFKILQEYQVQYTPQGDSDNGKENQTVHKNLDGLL
Kind of data set: Inhibition of N-terminal His-tagged GLS1 (unknown origin) expressed in Escherichia coli BL21 (DE3) preincubated for 20 mins and measured after 2 hrs.

Data set [2] addresses T1, Glutaminase kidney isoform, mitochondrial. Kind of data set: Inhibition of C-terminal His-tagged human recombinant KGA transformed in Escherichia coli BL21 DE3 at pH 7.4 incubated for 3 hrs.
A short description of data set [3]: Inhibition of human recombinant Glutaminase.
The nature of data set [4]: Inhibition of N-terminal Histidine-tagged recombinant mouse GAC incubated for 1 hrs by fluorescence based analysis.
Data set [5] can be described thus: Inhibition of 6His-tagged recombinant mouse GAC expressed in Escherichia coli preincubated for 10 mins and measured after 45 mins by chromatographic analysis.
Data set [6] in a line: Inhibition of human Glutaminase.
In data set [7] the target is T1, Glutaminase kidney isoform, mitochondrial. Kind of data set: Inhibition of full length C terminal His-tagged human KGA expressed in Escherichia coli BL-21 DE3.
For data set [8], the system named is HCC1806. Kind of data set: Cytotoxicity against human HCC1806 cells assessed as reduction in cell viability measured after 48 hrs by MTT assay. The data set is classed as functional, cell-based. The settings on record: HCC1806, 48 h. (In general: Tetrazolium assays rely on reduction of a dye to a coloured formazan, in cell work by metabolically active cells.)

Data set [9] is described as follows: Inhibition of full length C-terminal His-tagged rat Glutaminase expressed in Escherichia coli BL21 DE3 incubated for 12 hrs.
A short description of data set [10]: Lipophilicity, logP of the compound at pH 7.4 by HPLC analysis. Type of data set: physicochemical. The settings on record: buffer.
The test system of data set [11] is SW1990. Kind of data set: Antiproliferative activity against human SW1990 cells assessed as reduction in cell viability measured after 72 hrs by CCK-8 assay. The data set is classed as functional, cell-based. The conditions noted are these: SW1990, 72 h.
A short description of data set [12]: Inhibition of N-terminal 6His-tagged recombinant rat glutaminase expressed in Escherichia coli BL-21 DE3 measured after 20 mins by colorimetric analysis.

Take `O=C(Cc1ccccc1)Nc1nnc([C@@H]2CCC[C@@H](c3nnc(NC(=O)Cc4ccccc4)s3)C2)s1`: half-maximal inhibition in [1] (IC50) was put at 0.1 µM.
`O=c1c2ccccc2[se]n1CCCCCCn1[se]c2ccccc2c1=O`: the IC50 in data set [2] came to 0.2 µM.
As to `CN(C)c1ccc(C2Nc3ccc4ccccc4c3C3=C2C(=O)CC(C)(C)C3)cc1Br` (stereo not drawn), the IC50 in data set [3] was roughly 9.3 µM.
`CN(C)c1ccc(C2Nc3ccc4cc(C(C)(C)C)ccc4c3C3=C2C(=O)CC(C)(C)C3)cc1Br` (stereo not drawn): in data set [4], the IC50 turned out to be 4.5 µM.
As for `CN(C)c1ccc(C2Nc3ccc4ccccc4c3C3=C2C(=O)CC(C)(C)C3)cc1` (stereo not drawn), in data set [5], the IC50 was roughly 50 µM.
In the case of `CC(C)c1ccc(C2Nc3ccc4ccccc4c3C3=C2C(=O)CC(C)(C)C3)cc1` (stereo not drawn), the IC50 in [5] was roughly 20 µM.
On the same count and under the same terms, the value for `CC1(C)CC(=O)C2=C(C1)c1c(ccc3ccccc13)NC2c1ccc(C(C)(C)C)cc1` (stereo not drawn) was roughly 10 µM.
As for `O=c1c2ccccc2[se]n1-c1ccccc1` [EBSELEN], the IC50 in data set [6] amounted to 0.009 µM.
In the case of `C=C1CC[C@]2(C(=O)O[C@@H]3O[C@H](CO[C@@H]4O[C@H](CO)[C@@H](O)[C@H](O)[C@H]4O)[C@@H](O)[C@H](O)[C@H]3O)CC[C@]3(C)C(=CCC4[C@@]5(C)CC[C@H](O[C@@H]6OC[C@H](O[C@@H]7OC[C@H](O)[C@H](O)[C@H]7O[C@@H]7O[C@@H](C)[C@H](O)[C@@H](O)[C@H]7O)[C@H](O)[C@H]6O)C(C)(C)C5CC[C@]43C)C2C1` (stereo partly drawn), the 50% inhibitory concentration (IC50) in [7] came to 6.1 µM; in data set [8] it was 24.9 µM.
On to `CN1CCc2cccc3c2[C@H]1Cc1ccc(O)c(O)c1-3` [APOMORPHINE], for which half-maximal inhibition in data set [6] (IC50) required 0.6 µM.
`COc1ccc2c(c[n+](C)c3c4cc5c(cc4ccc23)OCO5)c1OC` [CHELERYTHRINE CHLORIDE] came in with an IC50 in [6] of 0.03 µM.
As to `CC1(C)CCc2c(ccc3c2O[C@@H]2c4ccc(O)cc4O[C@H]3[C@H]2O)O1`, the midpoint of inhibition in data set [9], the IC50, lay at 36.7 µM.
As for `O=C(Cc1cccc(OC(F)(F)F)c1)Nc1ccc(CCCCc2nnc(NC(=O)Cc3ccccn3)s2)nn1`, the logP in data set [10] is 2.72. Further, the IC50 in data set [11] was found to be 13.1 µM.
Regarding `O=C(Cc1ccccc1)Nc1nnc(CCSCCc2nnc(NC(=O)Cc3ccccc3)s2)s1`, in data set [10], the lipophilicity (logP) is 3.73. Further, the IC50 in data set [11] is 35.3 µM; in [12], 3.3 µM.
